Where a name gives a salt, the structure may show the parent alone.

The term melting point denotes the temperature of the solid-liquid transition. What is called IC50 is the concentration that inhibits the measured activity by half. A low value points to inhibition by little substance.

Test system in one series: not given
Test: not given
Details: not given
For the molecule `COc1cc(NC(=O)N[C@@H]2CCC[C@@H]2N2CCC(Cc3ccc(Cl)cc3)CC2)cc(OC)c1OC` (racemic) (as salt: hydrochloride), the melting point was 117.5 to 122.5 °C.
On the same count and under the same terms, in the case of `COc1cc(NC(=O)N[C@@H]2CN(C(C)=O)C[C@H]2N2CCC(Cc3ccc(Cl)cc3)CC2)cc(OC)c1OC` (racemic) (as salt: hydrochloride) it was 155 to 161 °C; in that of `COc1cc(NC(=O)N[C@@H]2CCCC[C@@H]2N2CCC(Cc3ccc(Cl)cc3)CC2)cc(OC)c1OC` (racemic) (as salt: hydrochloride), 120.1 to 137.3 °C.
The same measure, in the same setting: then `COc1cc(NC(=O)N[C@@H]2CN(S(C)(=O)=O)C[C@H]2N2CCC(Cc3ccc(Cl)cc3)CC2)cc(OC)c1OC` (racemic) (as salt: hydrochloride), with 148 to 158 °C; and `COc1cc(NC(=O)N[C@@H]2CN(S(=O)(=O)N(C)C)C[C@H]2N2CCC(Cc3ccc(Cl)cc3)CC2)cc(OC)c1OC` (racemic) (as salt: hydrochloride), with 141 to 143 °C.
Same read-out and setting: then `COc1cc(NC(=O)N[C@@H]2CN(C(=O)N(C)C)C[C@H]2N2CCC(Cc3ccc(Cl)cc3)CC2)cc(OC)c1OC` (racemic) (as salt: hydrochloride), with 142 to 144.5 °C; and `COc1cc(NC(=O)N[C@@H]2CN(C(N)=O)C[C@H]2N2CCC(Cc3ccc(Cl)cc3)CC2)cc(OC)c1OC` (racemic) (as salt: hydrochloride), with 158 to 162 °C.
`COC[C@@H]1C[C@@H](N2CCC(Cc3ccc(Cl)cc3)CC2)[C@H](NC(=O)Nc2cc(OC)c(OC)c(OC)c2)C1` (racemic) (as salt: hydrochloride): the melting point lay in the range of 109 to 112 °C.
Same read-out and setting: in the case of `COc1cc(NC(=O)N[C@@H]2C[C@H](OC)C[C@H]2N2CCC(Cc3ccc(Cl)cc3)CC2)cc(OC)c1OC` (racemic) (as salt: hydrochloride) it was 112.5 to 119.5 °C; in that of `COc1cc(NC(=O)N[C@@H]2CN(CC(N)=O)C[C@H]2N2CCC(Cc3ccc(Cl)cc3)CC2)cc(OC)c1OC` (racemic) (as salt: hydrochloride), 160 to 165 °C.
The same measure, in the same setting: in the case of `COc1cc(NC(=O)N[C@@H]2CN(CCS(C)(=O)=O)C[C@H]2N2CCC(Cc3ccc(Cl)cc3)CC2)cc(OC)c1OC` (racemic) (as salt: hydrochloride) it was 210.2 to 211.8 °C.
Molecule `COc1cc(CCNC(=O)N[C@@H]2CCC[C@H]2N2CCC(Cc3ccc(Cl)cc3)CC2)cc(OC)c1OC` (racemic) (as salt: hydrochloride) returned a melting point of 90.3 to 95 °C.
The same measure, in the same setting: then `COc1cc(NC(=O)N[C@@H]2CN(S(N)(=O)=O)C[C@H]2N2CCC(Cc3ccc(Cl)cc3)CC2)cc(OC)c1OC` (racemic) (as salt: hydrochloride), with 155.7 to 160 °C; and `CS(=O)(=O)c1ccc(C(=O)N[C@@H]2CC[C@H]2N2CCC(Cc3ccc(Cl)cc3)CC2)cc1` (racemic) (as salt: hydrochloride), with 173.2 to 184.1 °C.
Consider `COc1cc(NC(=O)N[C@@H]2CC[C@H]2N2CCC(Cc3ccc(Cl)cc3)CC2)cc(OC)c1OC` (racemic) (as salt: hydrochloride), for which the melting point was in the range of 127.4 to 128.2 °C.
On the same count and under the same terms, then `CS(=O)(=O)c1cccc(NC(=O)N[C@@H]2CCCC[C@H]2N2CCC(Cc3ccc(Cl)cc3)CC2)c1` (racemic) (as salt: hydrochloride), with 150.2 to 151.6 °C.
Still for that read-out and setting: then `COc1cc(NC(=O)N[C@@H]2CC[C@@H]2N2CCC(Cc3ccc(Cl)cc3)CC2)cc(OC)c1OC` (racemic) (as salt: hydrochloride), with 123.7 to 127.9 °C.
Same read-out and setting: in the case of `COc1cc(NC(=O)N[C@@H]2CCC[C@H]2N2CCC(Cc3ccc(Cl)cc3)CC2)cc(OC)c1OC` (racemic) (as salt: hydrochloride) it was 136.1 to 138 °C; in that of `COc1cc(NC(=O)N[C@@H]2COC[C@H]2N2CCC(Cc3ccc(Cl)cc3)CC2)cc(OC)c1OC` (racemic) (as salt: hydrochloride), 229.2 to 230.9 °C; in that of `COc1cc(NC(=O)N[C@@H]2C[C@H](O)C[C@H]2N2CCC(Cc3ccc(Cl)cc3)CC2)cc(OC)c1OC` (racemic) (as salt: hydrochloride), 137 to 143 °C.
With `COc1cc(NC(=O)N[C@@H]2C[C@H](CO)C[C@H]2N2CCC(Cc3ccc(Cl)cc3)CC2)cc(OC)c1OC` (racemic) (as salt: hydrochloride), the melting point lay in the range of 138 to 143 °C.
Still for that read-out and setting: then `COc1cc(NC(=O)N[C@@H]2CNC[C@H]2N2CCC(Cc3ccc(Cl)cc3)CC2)cc(OC)c1OC` (racemic) (as salt: hydrochloride) [Example 9, (±)-trans-1-{4-[4-(4-chlorobenzyl)piperidin-1-yl]-pyrrolidin-3-yl}-3-(3,4,5-trimethoxyphenyl)urea dihydrochloride], with 157 to 170 °C; and `CS(=O)(=O)c1ccc(C(=O)N[C@@H]2CCC[C@@H]2N2CCC(Cc3ccc(Cl)cc3)CC2)cc1` (racemic) (as salt: hydrochloride) [Example 11, (±)-cis-N-{2-[4-(4-chlorobenzyl)piperidin-1-yl]-cyclopentyl}-4-methanesulfonyl-benzamide hydrochloride], with 125.3 to 131.9 °C; and `CS(=O)(=O)c1ccc(C(=O)N[C@@H]2CCCC[C@@H]2N2CCC(Cc3ccc(Cl)cc3)CC2)cc1` (racemic) (as salt: hydrochloride) [Example 14, (±)-cis-N-{2-[4-(4-chlorobenzyl)piperidin-1-yl]-cyclohexyl}-4-methanesulfonyl-benzamide hydrochloride], with 123.7 to 149.4 °C.
On the same count and under the same terms, in the case of `COc1cc(NC(=O)N[C@@H]2CCCC[C@H]2N2CCC(Cc3ccc(Cl)cc3)CC2)cc(OC)c1OC` (racemic) [Example 1, (±)-trans-1-{2-[4-(4-chlorobenzyl)piperidin-1-yl]-cyclohexyl}-3-(3,4,5-trimethoxyphenyl)urea] it was 196.9 to 200 °C; in that of `COc1cc(NC(=O)N[C@@H]2C[C@H](O)C[C@H]2N2CCC(Cc3ccc(Cl)cc3)CC2)cc(OC)c1OC` (racemic) [Example 6, (±)-1-{(1R,2R,4S)-2-[4-(4-chlorobenzyl)piperidin-1-yl]-4-hydroxy-cyclopentyl}-3-(3,4,5-trimethoxyphenyl)urea], 98.7 to 102 °C; in that of `COc1cc(NC(=O)N[C@@H]2CCC[C@H]2N2CCC(Cc3ccc(Cl)cc3)CC2)cc2ccccc12` (racemic) [Example 22, (±)-trans-1-{2-[4-(4-chlorobenzyl)piperidin-1-yl]-cyclopentyl}-3-(4-methoxy-naphthalen-2-yl)urea], 175 to 190 °C.

A further series addresses T1, CCR-3 receptor (Homo sapiens, UniProt P51677).
T1 construct: expressed in transfected cells; host or cells: L1.2 (murine pre-B lymphoma line) stably transfected with CCR-3
T1 sequence (P51677 1-355): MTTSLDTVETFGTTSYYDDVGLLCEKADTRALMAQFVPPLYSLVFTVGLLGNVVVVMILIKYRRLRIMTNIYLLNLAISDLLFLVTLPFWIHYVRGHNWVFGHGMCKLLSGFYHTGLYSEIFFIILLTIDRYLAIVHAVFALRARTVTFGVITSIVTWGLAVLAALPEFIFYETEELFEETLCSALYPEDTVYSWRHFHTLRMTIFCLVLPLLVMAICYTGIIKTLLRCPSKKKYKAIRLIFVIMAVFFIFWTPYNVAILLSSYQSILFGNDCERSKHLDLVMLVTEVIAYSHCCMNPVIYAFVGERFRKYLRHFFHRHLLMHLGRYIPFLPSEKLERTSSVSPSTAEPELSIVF
Nature of the series: CCR-3 receptor binding assay, in vitro: inhibition of 125I eotaxin binding to CCR-3 L1.2 transfectant cells. Particulars: inhibition of binding of 125I-eotaxin to CCR-3 L1.2 transfected cells, 1 hour at room temperature. Here is the method:
The CCR-3 antagonistic activity of the compounds of the invention was determined by their ability to inhibit the binding of ^125I eotaxin to CCR-3 L1.2 transfectant cells (see Ponath, P. D. et al., J. Exp. Med., Vol. 183, 2437-2448, (1996)).
The assay was performed in Costar 96-well polypropylene round bottom plates. Test compounds were dissolved in DMSO and then diluted with binding buffer (50 mM HEPES, 1 mM CaCl2, 5 mM MgCl2, 0.5% bovine serum albumin (BSA), 0.02% sodium azide, pH 7.24) such that the final DMSO concentration was 2%. 25 μl of the test solution or only buffer with DMSO (control samples) was added to each well, followed by the addition of 25 μl of ^125I-eotaxin ([…]) (NEX314, New England Nuclear, Boston, Mass.) and 1.5×10^5 of the CCR-3 L1.2 transfected cells in 25 μl binding buffer. The final reaction volume was 75 μl.
After incubating the reaction mixture for 1 hour at room temperature, the reaction was terminated by filtering the reaction mixture through polyethylenimine treated Packard Unifilter GF/C filter plate (Packard, Chicago, Ill.). The filters were washed four times with ice cold wash buffer containing 10 mm HEPES and 0.5M sodium chloride (pH 7.2) and dried at 65° C. for approximately 10 minutes. 25 μl/well of Microscint-20® scintillation fluid (Packard) was added and the radioactivity retained on the filters was determined by using the Packard TopCount®.
With `O=C(Nc1ccc2ccccc2n1)N[C@@H]1CCC[C@H]1N1CCC(Cc2ccc(Cl)cc2)CC1` (racemic) [Compound 1, (±)-trans-1-{2-[4-(4-chlorobenzyl)piperidin-1-yl]cyclopentyl}-3-quinolin-2-yl-urea], the IC50 amounted to 557 nM.
The same measure, in the same setting: in the case of `CC(=O)Nc1cccc(NC(=O)N[C@@H]2CCC[C@H]2N2CCC(Cc3ccc(Cl)cc3)CC2)c1` [Compound 2] it was 18.5 nM; in that of `O=C(Nc1cccc(Cl)c1Cl)N[C@@H]1CCC[C@H]1N1CCC(Cc2ccc(Cl)cc2)CC1` [Compound 3], 1140 nM.
The same measure, in the same setting: then `O=C(NCCc1cccs1)N[C@@H]1CCC[C@H]1N1CCC(Cc2ccc(Cl)cc2)CC1` [Compound 4], with 864 nM.
Same read-out and setting: in the case of `O=C(N[C@@H]1CCC[C@H]1N1CCC(Cc2ccc(Cl)cc2)CC1)c1cc2cc(Cl)ccc2[nH]1` [Compound 5] it was 2690 nM; in that of `CC(=O)c1cccc(C(=O)N[C@@H]2CCC[C@H]2N2CCC(Cc3ccc(Cl)cc3)CC2)c1` [Compound 6], 1860 nM.
On to `COc1cc(CC(=O)N[C@@H]2CCC[C@H]2N2CCC(Cc3ccc(Cl)cc3)CC2)cc(OC)c1OC` [Compound 7], for which the IC50 was determined as 1480 nM.
As to `O=[N+]([O-])c1ccccc1S(=O)(=O)N[C@@H]1CCC[C@H]1N1CCC(Cc2ccc(Cl)cc2)CC1` [Compound 8], the IC50 worked out at 6090 nM.
The same measure, in the same setting: then `O=C(N[C@@H]1CCC[C@H]1N1CCC(Cc2ccc(Cl)cc2)CC1)OCc1ccc([N+](=O)[O-])cc1` [Compound 9], with 5120 nM; and `COc1ccc(NC(=S)N[C@@H]2CCC[C@H]2N2CCC(Cc3ccc(Cl)cc3)CC2)cc1` [Compound 10], with 512 nM.

Source of the values: patent US6977265B2, “Piperidine CCR-3 receptor antagonists” (Roche Palo Alto LLC, priority 2001, dated 2005).
